Experimental data as given in patent publication US10584128B2, “Bicyclic dihydropyrimidine-carboxamide derivatives as Rho-Kinase inhibitors” (CHIESI FARMACEUTICI S.p.A., priority 2016, dated 2020).

Tests used:
Rho kinase 1 = Rho kinase 1 (Homo sapiens, UniProt Q13464); assay: In vitro Rho kinase inhibitory activity assay (ADP-Glo kit, Myelin Basic Protein substrate); assay type: biochemical; conditions: 10 μM ATP, 25° C., read-out: ROCK1 inhibitory activity (Ki, range of activity)
Procedure, shortened: (§1)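 ADP-Glo luminescence assay at 25 °C in 40 mM Tris pH 7.5, 20 mM MgCl2, 0.1 mg/ml BSA, 50 μM DTT, with 2.5 μM myelin basic protein, 10 μM ATP and 1% DMSO. Compound and ROCK1 or ROCK2 were preincubated 30 min, then reacted 1 h. IC50 came from a sigmoidal fit; Ki via Cheng-Prusoff.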

Rho kinase 2 = Rho kinase 2 (Homo sapiens, UniProt O75116); assay: as above; assay type: biochemical; conditions: 10 μM ATP, 25° C., read-out: ROCK2 inhibitory activity (Ki, range of activity)
Rho kinase 2, sequence (O75116 whole entry): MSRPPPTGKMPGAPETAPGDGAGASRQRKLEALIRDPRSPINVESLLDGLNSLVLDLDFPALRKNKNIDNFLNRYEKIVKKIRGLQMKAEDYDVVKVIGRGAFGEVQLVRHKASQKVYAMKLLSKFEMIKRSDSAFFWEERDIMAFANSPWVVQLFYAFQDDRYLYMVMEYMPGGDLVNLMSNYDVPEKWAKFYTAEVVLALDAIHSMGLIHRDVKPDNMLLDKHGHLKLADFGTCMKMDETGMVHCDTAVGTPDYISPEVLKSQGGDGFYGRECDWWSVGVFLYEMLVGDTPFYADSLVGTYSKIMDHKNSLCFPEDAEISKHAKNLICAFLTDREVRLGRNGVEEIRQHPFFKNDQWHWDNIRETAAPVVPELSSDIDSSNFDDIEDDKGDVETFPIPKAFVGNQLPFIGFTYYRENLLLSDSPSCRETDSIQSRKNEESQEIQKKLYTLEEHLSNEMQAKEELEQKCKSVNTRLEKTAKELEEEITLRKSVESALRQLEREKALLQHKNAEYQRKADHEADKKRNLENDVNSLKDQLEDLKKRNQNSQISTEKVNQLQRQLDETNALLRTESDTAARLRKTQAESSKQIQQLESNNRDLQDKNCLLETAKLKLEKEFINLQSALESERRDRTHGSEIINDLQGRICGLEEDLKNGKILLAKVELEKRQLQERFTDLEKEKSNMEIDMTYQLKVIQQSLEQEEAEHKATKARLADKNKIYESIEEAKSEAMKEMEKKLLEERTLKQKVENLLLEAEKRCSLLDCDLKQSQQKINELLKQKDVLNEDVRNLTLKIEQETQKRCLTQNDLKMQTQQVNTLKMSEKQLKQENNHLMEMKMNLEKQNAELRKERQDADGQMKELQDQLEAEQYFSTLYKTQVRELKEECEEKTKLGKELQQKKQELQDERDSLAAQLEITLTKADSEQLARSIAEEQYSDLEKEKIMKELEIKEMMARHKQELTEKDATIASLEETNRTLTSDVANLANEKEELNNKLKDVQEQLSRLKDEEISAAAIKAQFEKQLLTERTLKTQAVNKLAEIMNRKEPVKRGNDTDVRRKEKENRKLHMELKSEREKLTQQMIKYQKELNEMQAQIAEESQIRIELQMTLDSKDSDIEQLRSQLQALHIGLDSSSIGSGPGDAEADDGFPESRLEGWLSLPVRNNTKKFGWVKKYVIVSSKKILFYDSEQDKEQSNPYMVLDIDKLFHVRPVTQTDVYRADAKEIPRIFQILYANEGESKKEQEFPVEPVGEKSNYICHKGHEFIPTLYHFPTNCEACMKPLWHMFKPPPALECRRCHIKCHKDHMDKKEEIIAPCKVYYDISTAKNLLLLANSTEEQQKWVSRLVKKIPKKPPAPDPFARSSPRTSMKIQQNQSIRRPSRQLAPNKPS
Procedure, shortened: as §1

Rho kinase 1, sequence (Q13464 whole entry): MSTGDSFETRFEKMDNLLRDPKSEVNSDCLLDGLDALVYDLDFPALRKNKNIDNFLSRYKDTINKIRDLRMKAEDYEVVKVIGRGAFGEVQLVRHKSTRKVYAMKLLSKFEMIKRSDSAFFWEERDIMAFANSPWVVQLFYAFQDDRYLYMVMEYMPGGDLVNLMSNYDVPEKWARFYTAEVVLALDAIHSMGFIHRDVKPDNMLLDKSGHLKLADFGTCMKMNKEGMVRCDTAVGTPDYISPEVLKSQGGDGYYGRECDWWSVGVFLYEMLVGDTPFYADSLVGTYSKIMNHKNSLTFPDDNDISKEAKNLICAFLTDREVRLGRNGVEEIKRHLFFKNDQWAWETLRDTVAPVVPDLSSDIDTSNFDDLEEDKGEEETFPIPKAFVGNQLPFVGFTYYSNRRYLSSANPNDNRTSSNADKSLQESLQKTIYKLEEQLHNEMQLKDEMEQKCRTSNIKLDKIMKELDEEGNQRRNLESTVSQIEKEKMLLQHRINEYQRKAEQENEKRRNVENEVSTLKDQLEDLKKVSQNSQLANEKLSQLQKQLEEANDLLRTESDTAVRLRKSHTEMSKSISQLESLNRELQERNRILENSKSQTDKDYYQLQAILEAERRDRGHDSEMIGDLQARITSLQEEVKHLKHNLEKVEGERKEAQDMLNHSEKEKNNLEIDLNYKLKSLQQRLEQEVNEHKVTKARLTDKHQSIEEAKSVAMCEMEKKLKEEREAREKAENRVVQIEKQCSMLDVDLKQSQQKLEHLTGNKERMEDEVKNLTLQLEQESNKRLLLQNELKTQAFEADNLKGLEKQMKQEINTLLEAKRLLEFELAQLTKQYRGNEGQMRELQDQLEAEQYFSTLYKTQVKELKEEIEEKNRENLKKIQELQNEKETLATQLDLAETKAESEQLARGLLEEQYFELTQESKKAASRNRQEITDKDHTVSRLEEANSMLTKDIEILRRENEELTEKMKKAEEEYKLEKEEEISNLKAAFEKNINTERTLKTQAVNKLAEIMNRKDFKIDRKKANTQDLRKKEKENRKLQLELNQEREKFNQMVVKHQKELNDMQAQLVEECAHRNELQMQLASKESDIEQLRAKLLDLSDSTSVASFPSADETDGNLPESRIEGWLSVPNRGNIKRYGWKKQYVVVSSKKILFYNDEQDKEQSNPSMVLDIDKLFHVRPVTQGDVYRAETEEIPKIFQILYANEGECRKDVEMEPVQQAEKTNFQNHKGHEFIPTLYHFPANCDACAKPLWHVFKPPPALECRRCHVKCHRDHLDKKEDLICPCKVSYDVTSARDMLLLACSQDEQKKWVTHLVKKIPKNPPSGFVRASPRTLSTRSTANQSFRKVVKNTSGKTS

`CC1=C(C(=O)Nc2ccc3cnccc3c2)C(c2ccc(C(F)(F)F)c(F)c2)n2nc(CN3CCC(N4CCCC4)CC3)cc2N1` (stereo not drawn) [Example 105, 7-(3-fluoro-4-(trifluoromethyl)phenyl)-N-(isoquinolin-6-yl)-5-methyl-2-((4-(pyrrolidin-1-yl)piperidin-1-yl)methyl)-4,7-dihydropyrazolo[1,5-a]pyrimidine-6-carboxamide] showed a Ki (Rho kinase 1) of under 50 nM and a Ki (Rho kinase 2) of under 50 nM.

Molecule `CC1=C(C(=O)Nc2ccc3cnccc3c2)C(c2ccc(C(F)(F)F)c(F)c2)n2nc(CN3CC(CN(C)C)C3)cc2N1` (stereo not drawn) [Example 106, 2-((3-((dimethylamino)methyl)azetidin-1-yl)methyl)-7-(3-fluoro-4-(trifluoromethyl)phenyl)-N-(isoquinolin-6-yl)-5-methyl-4,7-dihydropyrazolo[1,5-a]pyrimidine-6-carboxamide] has a Ki (Rho kinase 1) of under 50 nM and a Ki (Rho kinase 2) of under 50 nM.

`CC1=C(C(=O)Nc2ccc3[nH]ncc3c2)C(c2ccc(C(F)(F)F)cc2)n2nc(CN3CCOCC3)cc2N1` (stereo not drawn) [Example 107, N-(1H-indazol-5-yl)-5-methyl-2-(morpholinomethyl)-7-(4-(trifluoromethyl)phenyl)-4,7-dihydropyrazolo[1,5-a]pyrimidine-6-carboxamide] was tested, and the Ki (Rho kinase 1) was under 50 nM and the Ki (Rho kinase 2) was under 50 nM.

`CC1=C(C(=O)Nc2ccc3cnccc3c2)C(c2ccc(C(F)(F)F)c(F)c2)n2nc(CN3CCS(=O)(=O)CC3)cc2N1` (stereo not drawn) [Example 108, 2-((1,1-Dioxidothiomorpholino)methyl)-7-(3-fluoro-4-(trifluoromethyl)phenyl)-N-(isoquinolin-6-yl)-5-methyl-4,7-dihydropyrazolo[1,5-a]pyrimidine-6-carboxamide] gave a Ki (Rho kinase 1) of under 50 nM and a Ki (Rho kinase 2) of under 50 nM.

In the case of `CC(=O)N1CCN(Cc2cc3n(n2)C(c2ccc(C(F)(F)F)c(F)c2)C(C(=O)Nc2ccc4cnccc4c2)=C(C)N3)CC1` (stereo not drawn) [Example 109, 2-((4-acetylpiperazin-1-yl)methyl)-7-(3-fluoro-4-(trifluoromethyl)phenyl)-N-(isoquinolin-6-yl)-5-methyl-4,7-dihydropyrazolo[1,5-a]pyrimidine-6-carboxamide], the Ki (Rho kinase 1) is reported as under 50 nM and the Ki (Rho kinase 2) is reported as under 50 nM.

Work on `CC1=C(C(=O)Nc2ccc3[nH]ncc3c2)C(c2ccc(C(F)(F)F)cc2)n2nc(CN)cc2N1` (stereo not drawn) [Example 111, 2-(aminomethyl)-N-(1H-indazol-5-yl)-5-methyl-7-(4-(trifluoromethyl)phenyl)-4,7-dihydropyrazolo[1,5-a]pyrimidine-6-carboxamide] yielded a Ki (Rho kinase 1) of under 50 nM and a Ki (Rho kinase 2) of under 50 nM.

`CC1=C(C(=O)Nc2ccc3cnccc3c2)C(c2ccc(C(F)(F)F)c(F)c2)n2nc(CN)cc2N1` (stereo not drawn) [Example 112, 2-(aminomethyl)-7-(3-fluoro-4-(trifluoromethyl)phenyl)-N-(isoquinolin-6-yl)-5-methyl-4,7-dihydropyrazolo[1,5-a]pyrimidine-6-carboxamide] was tested, and the Ki (Rho kinase 1) was under 50 nM and the Ki (Rho kinase 2) was under 50 nM.

`CCOC(=O)c1cc2n(n1)C(c1ccc(C(F)(F)F)c(F)c1)C(C(=O)Nc1ccc3cnccc3n1)=C(C)N2` (stereo not drawn) [Example 113, ethyl 6-((1,6-naphthyridin-2-yl)carbamoyl)-7-(3-fluoro-4-(trifluoromethyl)phenyl)-5-methyl-4,7-dihydropyrazolo[1,5-a]pyrimidine-2-carboxylate] showed a Ki (Rho kinase 1) of under 50 nM and a Ki (Rho kinase 2) of under 50 nM.

`CCOC(=O)c1cc2n(n1)C(c1ccc(C(F)(F)F)c(F)c1)C(C(=O)Nc1ccc3cncc(C)c3c1)=C(C)N2` (stereo not drawn) [Example 114, ethyl 7-(3-fluoro-4-(trifluoromethyl)phenyl)-5-methyl-6-((4-methylisoquinolin-6-yl)carbamoyl)-4,7-dihydropyrazolo[1,5-a]pyrimidine-2-carboxylate] showed a Ki (Rho kinase 1) of under 50 nM and a Ki (Rho kinase 2) of under 50 nM.

For `CCOC(=O)c1cc2n(n1)C(c1ccc(C(F)F)c(F)c1)C(C(=O)Nc1ccc3cnccc3c1)=C(C)N2` (stereo not drawn) [Example 115, ethyl 7-(4-(difluoromethyl)-3-fluorophenyl)-6-(isoquinolin-6-ylcarbamoyl)-5-methyl-4,7-dihydropyrazolo[1,5-a]pyrimidine-2-carboxylate], the Ki (Rho kinase 1) was under 50 nM and the Ki (Rho kinase 2) was under 50 nM.

`CC1=C(C(=O)Nc2ccc3cnccc3c2)C(c2ccc(C(F)(F)F)c(F)c2)n2nc(C3COC3)cc2N1` (stereo not drawn) [Example 116, 7-(3-fluoro-4-(trifluoromethyl)phenyl)-N-(isoquinolin-6-yl)-5-methyl-2-(oxetan-3-yl)-4,7-dihydropyrazolo[1,5-a]pyrimidine-6-carboxamide] showed a Ki (Rho kinase 1) of under 50 nM and a Ki (Rho kinase 2) of under 50 nM.

In the case of `CSc1cc2n(n1)C(c1ccc(C(F)(F)F)c(F)c1)C(C(=O)Nc1ccc3cnccc3c1)=C(C)N2` (stereo not drawn) [Example 117, 7-(3-fluoro-4-(trifluoromethyl)phenyl)-N-(isoquinolin-6-yl)-5-methyl-2-(methylthio)-4,7-dihydropyrazolo[1,5-a]pyrimidine-6-carboxamide], the Ki (Rho kinase 1) is reported as under 50 nM and the Ki (Rho kinase 2) is reported as under 50 nM.

For `O=C(Nc1ccc2cnccc2c1)C1=C(C2CC2)Nc2cc(CO)nn2C1c1ccc(C(F)(F)F)c(F)c1` (stereo not drawn) [Example 118, 5-cyclopropyl-7-(3-fluoro-4-(trifluoromethyl)phenyl)-2-(hydroxymethyl)-N-(isoquinolin-6-yl)-4,7-dihydropyrazolo[1,5-a]pyrimidine-6-carboxamide], the Ki (Rho kinase 1) was under 50 nM and the Ki (Rho kinase 2) was under 50 nM.

For `COCC1=C(C(=O)Nc2ccc3cnccc3c2)C(c2ccc(C(F)(F)F)c(F)c2)n2nc(CO)cc2N1` (stereo not drawn) [Example 119, 7-(3-fluoro-4-(trifluoromethyl)phenyl)-2-(hydroxymethyl)-N-(isoquinolin-6-yl)-5-(methoxymethyl)-4,7-dihydropyrazolo[1,5-a]pyrimidine-6-carboxamide], the Ki (Rho kinase 1) was under 50 nM and the Ki (Rho kinase 2) was under 50 nM.

`CC1=C(C(=O)Nc2ccc3cnccc3c2)C(C2CCC(C(F)(F)F)CC2)n2nc(CN(C)C)cc2N1` (stereo not drawn) [Example 120, 2-((dimethylamino)methyl)-N-(isoquinolin-6-yl)-5-methyl-7-(4-(trifluoromethyl)cyclohexyl)-4,7-dihydropyrazolo[1,5-a]pyrimidine-6-carboxamide] showed a Ki (Rho kinase 1) of under 50 nM and a Ki (Rho kinase 2) of under 50 nM.

`CC1=C(C(=O)Nc2ccc3cnccc3c2)C(c2ccc(C)c(F)c2F)n2nc(CN(C)C)cc2N1` (stereo not drawn) [Example 121, 7-(2,3-difluoro-4-methylphenyl)-2-((dimethylamino)methyl)-N-(isoquinolin-6-yl)-5-methyl-4,7-dihydropyrazolo[1,5-a]pyrimidine-6-carboxamide] gave a Ki (Rho kinase 1) of under 50 nM and a Ki (Rho kinase 2) of under 50 nM.

Work on `CC1=C(C(=O)Nc2ccc3cnccc3c2)C(c2ccc(C(F)(F)F)c(F)c2F)n2nc(CN(C)C)cc2N1` (stereo not drawn) [Example 122, 7-(2,3-difluoro-4-(trifluoromethyl)phenyl)-2-((dimethylamino)methyl)-N-(isoquinolin-6-yl)-5-methyl-4,7-dihydropyrazolo[1,5-a]pyrimidine-6-carboxamide] yielded a Ki (Rho kinase 1) of under 50 nM and a Ki (Rho kinase 2) of under 50 nM.

`CC1=C(C(=O)Nc2ccc3cnccc3n2)C(c2ccc(C(F)(F)F)c(F)c2)n2nc(CN(C)C)cc2N1` (stereo not drawn) [Example 123, 2-((dimethylamino)methyl)-7-(3-fluoro-4-(trifluoromethyl)phenyl)-5-methyl-N-(1,6-naphthyridin-2-yl)-4,7-dihydropyrazolo[1,5-a]pyrimidine-6-carboxamide] gave a Ki (Rho kinase 1) of under 50 nM and a Ki (Rho kinase 2) of under 50 nM.

For `CC1=C(C(=O)Nc2ccc3cnccc3c2)C(C2Cc3ccccc3C2)n2nc(CN(C)C)cc2N1` (stereo not drawn) [Example 124, 7-(2,3-dihydro-1H-inden-2-yl)-2-((dimethylamino)methyl)-N-(isoquinolin-6-yl)-5-methyl-4,7-dihydropyrazolo[1,5-a]pyrimidine-6-carboxamide], the Ki (Rho kinase 1) was under 50 nM and the Ki (Rho kinase 2) was under 50 nM.

`CC1=C(C(=O)Nc2ccc3cnccc3c2)C(c2ccc(C(F)(F)F)c(F)c2)n2nc(C(=O)NC3CC3)cc2N1` (stereo not drawn) [Example 125, N2-cyclopropyl-7-(3-fluoro-4-(trifluoromethyl)phenyl)-N6-(isoquinolin-6-yl)-5-methyl-4,7-dihydropyrazolo[1,5-a]pyrimidine-2,6-dicarboxamide] was tested, and the Ki (Rho kinase 1) was under 50 nM and the Ki (Rho kinase 2) was under 50 nM.

`CC1=C(C(=O)Nc2ccc3cnccc3c2)C(c2ccc(C(F)(F)F)c(F)c2)n2nc(C(=O)N(C)C)cc2N1` (stereo not drawn) [Example 126, 7-(3-fluoro-4-(trifluoromethyl)phenyl)-N6-(isoquinolin-6-yl)-N2,N2,5-trimethyl-4,7-dihydropyrazolo[1,5-a]pyrimidine-2,6-dicarboxamide] was tested, and the Ki (Rho kinase 1) was under 50 nM and the Ki (Rho kinase 2) was under 50 nM.

With `CC1=C(C(=O)Nc2ccc3cnccc3c2)C(c2ccc(C(F)(F)F)c(F)c2)n2nc(C(=O)NCCC(=O)N3CCCC3)cc2N1` (stereo not drawn) [Example 127, 7-(3-fluoro-4-(trifluoromethyl)phenyl)-N6-(isoquinolin-6-yl)-5-methyl-N2-(3-oxo-3-(pyrrolidin-1-yl)propyl)-4,7-dihydropyrazolo[1,5-a]pyrimidine-2,6-dicarboxamide] the Ki (Rho kinase 1) was under 50 nM and the Ki (Rho kinase 2) was under 50 nM.

In the case of `CC1=C(C(=O)Nc2ccc3cnccc3c2)C(c2ccc(C(F)(F)F)c(F)c2)n2nc(C(=O)NC3CC(F)(F)C3)cc2N1` (stereo not drawn) [Example 128, N2-(3,3-difluorocyclobutyl)-7-(3-fluoro-4-(trifluoromethyl)phenyl)-N6-(isoquinolin-6-yl)-5-methyl-4,7-dihydropyrazolo[1,5-a]pyrimidine-2,6-dicarboxamide], the Ki (Rho kinase 1) is reported as under 50 nM and the Ki (Rho kinase 2) is reported as under 50 nM.

With `CC1=C(C(=O)Nc2ccc3cnccc3c2)C(c2ccc(C(F)(F)F)c(F)c2)n2nc(C(=O)NCCN3CCCCC3)nc2N1` (stereo not drawn) [Example 129, 7-(3-fluoro-4-(trifluoromethyl)phenyl)-N6-(isoquinolin-6-yl)-5-methyl-N2-(2-(piperidin-1-yl)ethyl)-4,7-dihydro-[1,2,4]triazolo[1,5-a]pyrimidine-2,6-dicarboxamide] the Ki (Rho kinase 1) was under 50 nM and the Ki (Rho kinase 2) was under 50 nM.
